Several values for one entry are separate records, joined by “and”; a condition that tells them apart may be missing. Equal values may be shown once.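 Test compounds were applied to cells in 96-well plates for 48 hours at 5 doses. GI50: concentration for 50% inhibition of growth.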 Activity calls are given as the source filed them. Cut-off read from the data, not from the text of the source: active = GI50 up to about 1.1 µM and inactive = higher. Residues, ends and D or L forms follow the SMILES beside them. *: point of attachment. Boc = CC(C)(C)OC(=O)*; OBn = c1ccc(CO*)cc1
What was measured:
Experiment in all cases: NCI tumour cell line growth inhibition, 48 h
[1] = tested on: NCI-H23
[2] = tested on: U-251
[3] = tested on: MDA-N
[4] = tested on: HOP-92
[5] = tested on: KM12
[6] = tested on: K562
[7] = tested on: OVCAR-3
[8] = tested on: HCC 2998
[9] = tested on: LOX IMVI
[10] = tested on: CCRF-CEM
[11] = tested on: SK-MEL-5
[12] = tested on: EKVX
[13] = tested on: PC-3
[14] = tested on: HCT-116
[15] = tested on: OVCAR-4
[16] = tested on: SF-268
[17] = tested on: A498
[18] = tested on: IGROV-1
[19] = tested on: MDA-MB-231
[20] = tested on: DLD-1

SMILES | GI50 [1] | GI50 [2] | GI50 [3] | GI50 [4] | GI50 [5] | GI50 [6] | GI50 [7] | GI50 [8] | GI50 [9] | GI50 [10] | GI50 [11] | GI50 [12] | GI50 [13] | GI50 [14] | GI50 [15] | GI50 [16] | GI50 [17] | GI50 [18] | GI50 [19] | GI50 [20]
Cc1nc(N(C(C)C)C(C)C)c(C(C)C)o1 | > 100 µM (inactive) | > 100 µM (inactive) | > 100 µM (inactive) | > 100 µM (inactive) | > 100 µM (inactive) | > 100 µM (inactive) | > 100 µM (inactive) | > 100 µM (inactive) | > 100 µM (inactive) | > 100 µM (inactive) | > 100 µM (inactive) | > 100 µM (inactive) | > 100 µM (inactive) | > 100 µM (inactive) | > 100 µM (inactive) | > 100 µM (inactive) | > 100 µM (inactive) | > 100 µM (inactive) | > 100 µM (inactive) | 
Cc1nc2ccc(Cl)cc2c2c1CCO2 | > 100 µM (inactive) | > 100 µM (inactive) | 36.3 µM (inactive) | 80 µM (inactive) | > 100 µM (inactive) | > 100 µM (inactive) | 91.6 µM (inactive) | > 100 µM (inactive) | 67.5 µM (inactive) | 57.8 µM (inactive) | 68.5 µM (inactive) | 17.1 µM (inactive) | 88.1 µM (inactive) | 97.5 µM (inactive) | > 100 µM (inactive) | 68.9 µM (inactive) | 71 µM (inactive) | 56.8 µM (inactive) | 43.5 µM (inactive) | 
CC(=O)CC(O)(C(F)(F)Cl)C(F)(F)Cl | > 10 µM (inactive) | > 10 µM (inactive) | > 10 µM (inactive) | > 10 µM (inactive) | > 10 µM (inactive) | > 10 µM (inactive) | > 10 µM (inactive) | > 10 µM (inactive) | > 10 µM (inactive) | > 10 µM (inactive) | > 10 µM (inactive) | > 10 µM (inactive) | > 10 µM (inactive) | > 10 µM (inactive) | > 10 µM (inactive) | > 10 µM (inactive) | > 10 µM (inactive) | > 10 µM (inactive) | > 10 µM (inactive) | 
O=C(Cl)C1=C(c2ccccc2)C1c1ccccc1 (stereo not drawn) | > 100 µM (inactive) | > 100 µM (inactive) | > 100 µM (inactive) | > 100 µM (inactive) | > 100 µM (inactive) | > 100 µM (inactive) | > 100 µM (inactive) | > 100 µM (inactive) | > 100 µM (inactive) | > 100 µM (inactive) | > 100 µM (inactive) | > 100 µM (inactive) | > 100 µM (inactive) | > 100 µM (inactive) | > 100 µM (inactive) | > 100 µM (inactive) | > 100 µM (inactive) | > 100 µM (inactive) | > 100 µM (inactive) | 
CC(C)NC(=O)OCc1c(COC(=O)NC(C)C)c(-c2ccc[n+](COC(=O)C(C)C)c2)n2c1CCC2 | 33.5 µM (inactive) | > 75.5 µM (inactive) | > 100 µM (inactive) | 44.1 µM (inactive) | > 100 µM (inactive) | 56.6 µM (inactive) | > 67.8 µM (inactive) | > 100 µM (inactive) | 37.7 µM (inactive) | 17.2 µM (inactive) | > 94.4 µM (inactive) | > 100 µM (inactive) | 59.3 µM (inactive) | 54.7 µM (inactive) | > 87.3 µM (inactive) | 52.4 µM (inactive) | 23.1 µM (inactive) | > 67.6 µM (inactive) | > 100 µM (inactive) | 
OC1(c2ccccc2)CCN(Cc2c[nH]c3ccccc23)CC1 | 96.6 µM (inactive) | 64.4 µM (inactive) | 30.7 µM (inactive) | > 100 µM (inactive) | 75.3 µM (inactive) | 33.2 µM (inactive) | > 100 µM (inactive) | 17.8 µM (inactive) | 76.4 µM (inactive) | > 100 µM (inactive) | 36.3 µM (inactive) | > 100 µM (inactive) | > 100 µM (inactive) | 40.5 µM (inactive) | > 100 µM (inactive) | > 100 µM (inactive) | 92.3 µM (inactive) | > 100 µM (inactive) | 81.3 µM (inactive) | 
CC(=O)C1=C(C)N2C(=NC3=C(CCc4ccccc43)C2c2ccc(Cl)cc2)S1 (stereo not drawn) | 71.1 µM (inactive) | > 67.5 µM (inactive) | 46.8 µM (inactive) | 31 µM (inactive) | 33.3 µM (inactive) | 2.05 µM (inactive) | > 38.7 µM (inactive) | 5.69 µM (inactive) | > 81.1 µM (inactive) | 8.41 µM (inactive) | 26.1 µM (inactive) | 46.8 µM (inactive) | 10.2 µM (inactive) | 5.85 µM (inactive) | > 36.1 µM (inactive) | > 87.9 µM (inactive) | 20.7 µM (inactive) | 12.3 µM (inactive) | > 100 µM (inactive) | 
N#Cc1nc(C#N)c(N)[nH]1 | > 100 µM (inactive) | > 100 µM (inactive) | > 100 µM (inactive) | > 100 µM (inactive) | > 100 µM (inactive) | > 100 µM (inactive) | > 100 µM (inactive) | > 100 µM (inactive) | > 100 µM (inactive) | > 100 µM (inactive) | > 100 µM (inactive) | > 100 µM (inactive) | > 100 µM (inactive) | > 100 µM (inactive) | > 100 µM (inactive) | > 100 µM (inactive) | > 100 µM (inactive) | > 100 µM (inactive) | > 100 µM (inactive) | 
CCCCCCCCCCCCOP(N)(=O)OCCCCCCCCCCCC | > 100 µM (inactive) | > 100 µM (inactive) |  |  |  | > 100 µM (inactive) | > 100 µM (inactive) | > 100 µM (inactive) | > 100 µM (inactive) | > 100 µM (inactive) |  | > 100 µM (inactive) |  | > 100 µM (inactive) |  | > 100 µM (inactive) |  | > 100 µM (inactive) |  | > 100 µM (inactive)
COc1cc(/C=N/N=C2NCCCCN2)ccc1O | > 100 µM (inactive) | > 100 µM (inactive) | > 100 µM (inactive) | > 100 µM (inactive) | > 100 µM (inactive) | 58.7 µM (inactive) | > 100 µM (inactive) | > 100 µM (inactive) | > 100 µM (inactive) | > 100 µM (inactive) | 40 µM (inactive) | > 100 µM (inactive) | > 100 µM (inactive) | > 100 µM (inactive) | > 100 µM (inactive) | > 100 µM (inactive) | 96.2 µM (inactive) | > 100 µM (inactive) | > 100 µM (inactive) | 
COC(=O)C1=C(O)C(C(=O)OC)[C@@]2(O)[C@@H](C(=O)OC)C(c3ccc(OC(=O)/C=C/c4ccccc4)cc3)C[C@@H]1[C@@H]2C(=O)OC (stereo partly drawn) | 13.3 µM (inactive) | 6.15 µM (inactive) | 3.24 µM (inactive) | 29.4 µM (inactive) | 5.37 µM (inactive) | 5.79 µM (inactive) | 9.77 µM (inactive) | 4.89 µM (inactive) | 2.31 µM (inactive) | 2.68 µM (inactive) | 10.6 µM (inactive) | 12.3 µM (inactive) | 6.84 µM (inactive) | 4.24 µM (inactive) | 6.18 µM (inactive) | 9.79 µM (inactive) | 34.8 µM (inactive) | 8.04 µM (inactive) | 14.7 µM (inactive) | 
CN(C)CCn1c(=O)c2ccc(NCCNCCO)c3c(=O)c4cc(O)ccc4n(c1=O)c23 | 1.01 µM (active) | 0.931 µM (active) | 2.2 µM (inactive) | 0.61 µM (active) | 3.57 µM (inactive) | 0.991 µM (active) | 2.55 µM (inactive) | 0.661 µM (active) | 0.91 µM (active) | 0.258 µM (active) | 1.49 µM (inactive) | 2.58 µM (inactive) | 1.69 µM (inactive) | 0.664 µM (active) | 0.895 µM (active) | 0.393 µM (active) | 1.93 µM (inactive) | 1.05 µM (active) | 0.586 µM (active) | 
CC(C)C(NC(=O)CNC(=O)C1CCCN1C(=O)C(NC(=O)OC(C)(C)C)C(C)C)C(=O)NCC(=O)OCc1ccccc1 (stereo not drawn) (Boc-VPGVG-OBn; configuration not given here) | > 100 µM (inactive) | > 100 µM (inactive) | > 100 µM (inactive) | > 100 µM (inactive) | > 100 µM (inactive) | 61.4 µM (inactive) | > 100 µM (inactive) | > 100 µM (inactive) | > 100 µM (inactive) | > 100 µM (inactive) | 24.5 µM (inactive) | > 100 µM (inactive) | > 100 µM (inactive) | > 100 µM (inactive) | > 100 µM (inactive) | > 100 µM (inactive) | > 100 µM (inactive) | > 100 µM (inactive) and 94.6 µM (inactive) | > 100 µM (inactive) | 
COc1cccc2c1cc([N+](=O)[O-])c1c(C(=O)O)cc3c(c12)OCO3 [ARISTOLOCHIC ACID] | 39.4 µM (inactive) | 36.9 µM (inactive) | > 100 µM (inactive) | > 78 µM (inactive) | 27.3 µM (inactive) | 33.9 µM (inactive) | 33.9 µM (inactive) | 2.8 µM (inactive) | 35.5 µM (inactive) | 20 µM (inactive) | 44 µM (inactive) | 43.4 µM (inactive) | 46.5 µM (inactive) | 29.9 µM (inactive) | 32 µM (inactive) | 33.8 µM (inactive) | 29.4 µM (inactive) | 29.4 µM (inactive) | 39.1 µM (inactive) | 
COC(=O)C1=C(C)NC(C)=C(C(=O)OCCCN2CCC(c3ccccc3)(c3ccccc3)CC2)[C@H]1c1cccc([N+](=O)[O-])c1 [NIGULDIPINE] | 1.75 µM (inactive) | 1.8 µM (inactive) | 1.97 µM (inactive) | 1.39 µM (inactive) | 1.77 µM (inactive) | 0.946 µM (active) | 1.46 µM (inactive) | 2.24 µM (inactive) | 1.62 µM (inactive) | 1.14 µM (inactive) | 1.75 µM (inactive) | 2 µM (inactive) | 1.52 µM (inactive) | 1.51 µM (inactive) | 1.55 µM (inactive) | 1.79 µM (inactive) | 4.53 µM (inactive) | 1.8 µM (inactive) | 1.3 µM (inactive) | 

Source: ChEMBL document CHEMBL1201862, “PubChem BioAssay data set” (2004)
